One assay addresses human μ-opiate receptor (Homo sapiens, UniProt P35372). The assay can be described thus: μ-opiate receptor binding, [3H]-naloxone displacement, CHO-K1 membrane preparation. The settings on record: No. 1-49.
The next assay concerns mice. The conditions noted are these: mouse, in vivo, ip, 30 mg/kg.
In another assay the target is HERG channel (Homo sapiens, UniProt Q12809). The conditions noted are these: read-out: IC50, HERG channel; Katchman et al. 2002; cited from earlier work.
Chain of HERG channel (Q12809 whole entry): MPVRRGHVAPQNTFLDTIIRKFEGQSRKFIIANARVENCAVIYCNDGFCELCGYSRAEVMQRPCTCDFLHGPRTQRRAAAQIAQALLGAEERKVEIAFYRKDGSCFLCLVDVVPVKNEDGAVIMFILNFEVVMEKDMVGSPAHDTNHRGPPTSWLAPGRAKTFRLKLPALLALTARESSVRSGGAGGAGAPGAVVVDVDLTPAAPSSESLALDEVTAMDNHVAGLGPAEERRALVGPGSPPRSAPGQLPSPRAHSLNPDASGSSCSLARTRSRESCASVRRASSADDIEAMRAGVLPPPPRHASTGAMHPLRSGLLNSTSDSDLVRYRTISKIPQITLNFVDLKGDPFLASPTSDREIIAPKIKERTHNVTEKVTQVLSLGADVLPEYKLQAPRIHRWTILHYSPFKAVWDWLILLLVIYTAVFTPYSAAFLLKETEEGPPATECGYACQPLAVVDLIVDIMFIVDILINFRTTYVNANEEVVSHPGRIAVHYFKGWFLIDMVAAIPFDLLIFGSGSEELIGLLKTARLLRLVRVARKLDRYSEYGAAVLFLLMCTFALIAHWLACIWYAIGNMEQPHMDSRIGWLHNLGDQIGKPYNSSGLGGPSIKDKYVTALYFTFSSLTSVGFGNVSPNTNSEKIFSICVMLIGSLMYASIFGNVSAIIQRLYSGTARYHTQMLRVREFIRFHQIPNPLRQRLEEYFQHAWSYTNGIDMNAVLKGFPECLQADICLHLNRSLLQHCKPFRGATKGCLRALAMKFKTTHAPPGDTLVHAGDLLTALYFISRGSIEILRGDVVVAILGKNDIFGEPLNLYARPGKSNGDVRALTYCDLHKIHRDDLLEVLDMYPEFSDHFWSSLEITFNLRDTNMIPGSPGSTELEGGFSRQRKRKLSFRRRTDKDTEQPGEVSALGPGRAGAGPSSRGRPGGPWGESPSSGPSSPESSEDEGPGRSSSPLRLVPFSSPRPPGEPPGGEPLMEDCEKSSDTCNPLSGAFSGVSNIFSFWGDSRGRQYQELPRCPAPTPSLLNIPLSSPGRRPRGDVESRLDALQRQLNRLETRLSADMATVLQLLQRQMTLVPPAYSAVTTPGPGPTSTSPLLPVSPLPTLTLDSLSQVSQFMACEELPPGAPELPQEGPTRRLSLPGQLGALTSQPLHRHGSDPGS

Chain of human μ-opiate receptor (P35372 whole entry): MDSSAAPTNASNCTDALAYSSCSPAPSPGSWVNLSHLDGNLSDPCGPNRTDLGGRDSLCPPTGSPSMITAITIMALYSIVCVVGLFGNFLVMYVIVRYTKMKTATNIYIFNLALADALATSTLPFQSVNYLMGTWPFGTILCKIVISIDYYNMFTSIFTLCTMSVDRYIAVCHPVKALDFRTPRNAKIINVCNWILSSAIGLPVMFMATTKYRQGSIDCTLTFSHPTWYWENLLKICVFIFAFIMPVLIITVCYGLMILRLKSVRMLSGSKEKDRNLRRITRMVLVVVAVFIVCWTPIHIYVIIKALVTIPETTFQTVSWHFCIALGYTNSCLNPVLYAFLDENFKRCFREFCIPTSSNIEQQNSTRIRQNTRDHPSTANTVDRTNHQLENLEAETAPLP

The compound `CN(C)C1(c2ccccc2)CCC2(CC1)NCCc1c2oc2ccccc12` (stereo not drawn) [Example 12, 1,1-(3-dimethylamino-3-phenylpentamethylene)-1,3,4,9-tetrahydro-2-aza-9-oxafluorene] showed an inhibition constant Ki on human μ-opiate receptor of 0.17 µM.

With `CCC(=O)C(C[C@@H](C)N(C)C)(c1ccccc1)c1ccccc1` [Levomethadone, levomethadone], in the assay with mice, the “withdrawal jumping triggered by naloxone” value is given as “induced withdrawal jumping”.

Turning to `CCC(=O)C(CC(C)N(C)C)(c1ccccc1)c1ccccc1` (racemic) [methadone], the IC50 on HERG channel is 9.8 µM.

Source of the values: patent publication US8034936B2, “Spirocyclic cyclohexane compounds useful to treat substance dependency” (Gruenenthal GmbH, priority 2005, dated 2011).
